ChEMBL document CHEMBL3885861, “Open TG-GATES”

Species on record: Rattus norvegicus
Test: Open TG-GATES - Regimen: Daily Repeat
Format: toxicity, organism-based, Sprague-Dawley
Set-up: regimen Daily Repeat, gender Male, age 6 weeks
Settings: in vivo, po, 100 mg/kg, route gavage, dose level Low; for APTT / Bas / Eos / Fbg / Hb / Ht / Lym / MCH / MCHC / MCV / Mono / Neu / PT / Plat / RBC / Ret / WBC: tissue Blood; for KIDNEY_L / KIDNEY_R / KIDNEY_TOTAL: tissue Kidney; for LIVER: tissue Liver; for A/G / ALP / ALT / AST / BUN / CRE / Ca / Cl / DBIL / GLC / IP / K / LDH / Na / PL / RALB / TBIL / TC / TG / TP / gamma-GTP: tissue Plasma

## CN(C)[C@@H]1C(O)=C(C(N)=O)C(=O)[C@@]2(O)C(O)=C3C(=O)c4c(O)cccc4[C@@](C)(O)[C@H]3C[C@@H]12 [TETRACYCLINE]
72 h, time 3 day
  TERMINAL_BW: 197.6 g
  APTT: 16.3 s
  Bas: 0%
  Eos: 0.8%
  Fbg: 225.6 mg/dL
  Hb: 13.2 g/dL
  Ht: 39.6%
  Lym: 85%
  MCH: 21.7 pg
  MCHC: 33.4%
  MCV: 65.1 fL
  Mono: 5.2%
  Neu: 9%
  PT: 12.1 s
  Plat: 103.9 x10_4/uL
  RBC: 608.6 x10_4/ul
  Ret: 7.9%
  WBC: 100.3 x10_2/uL
  KIDNEY_L: 0.9 g
  KIDNEY_R: 0.9 g
  KIDNEY_TOTAL: 1.8 g
  LIVER: 9.3 g
  A/G: 2.1
  ALP: 900.4 IU/L
  ALT: 40.6 IU/L
  AST: 73.4 IU/L
  BUN: 16.8 mg/dL
  CRE: 0.6 mg/dL
  Ca: 11.2 mg/dL
  Cl: 106.4 meq/L
  DBIL: 0 mg/dL
  GLC: 195.6 mg/dL
  IP: 9 mg/dL
  K: 4.8 meq/L
  LDH: 134.4 IU/L
  Na: 140 meq/L
  PL: 145.2 mg/dL
  RALB: 3.9 g/dL
  TBIL: 0.3 mg/dL
  TC: 86.2 mg/dL
  TG: 48.8 mg/dL
  TP: 5.7 g/dL
  gamma-GTP: 0.8 IU/L
[…], time 7 day
  TERMINAL_BW: 227.4 g
  APTT: 16.7 s
  Bas: 0%
  Eos: 1%
  Fbg: 241 mg/dL
  Hb: 13.5 g/dL
  Ht: 40.2%
  Lym: 85.2%
  MCH: 21 pg
  MCHC: 33.6%
  MCV: 62.3 fL
  Mono: 6.2%
  Neu: 8%
  PT: 12 s
  Plat: 101.8 x10_4/uL
  RBC: 645.8 x10_4/ul
  Ret: 6.6%
  WBC: 114 x10_2/uL
  KIDNEY_L: 1 g
  KIDNEY_R: 1.1 g
  KIDNEY_TOTAL: 2.1 g
  LIVER: 11.4 g
  A/G: 2.1
  ALP: 738 IU/L
  ALT: 37.3 IU/L
  AST: 71 IU/L
  BUN: 19.7 mg/dL
  CRE: 0.6 mg/dL
  Ca: 11.4 mg/dL
  Cl: 105 meq/L
  DBIL: 0.0033 mg/dL
  GLC: 181.3 mg/dL
  IP: 9.9 mg/dL
  K: 5 meq/L
  LDH: 105.7 IU/L
  Na: 140 meq/L
  PL: 164.7 mg/dL
  RALB: 3.9 g/dL
  TBIL: 0.3 mg/dL
  TC: 86.3 mg/dL
  TG: 87.7 mg/dL
  TP: 5.9 g/dL
  gamma-GTP: 1.7 IU/L
[…], time 14 day
  TERMINAL_BW: 271.9 g
  APTT: 16.5 s
  Bas: 0%
  Eos: 0.6%
  Fbg: 229.6 mg/dL
  Hb: 13.9 g/dL
  Ht: 41.7%
  Lym: 91.2%
  MCH: 20.9 pg
  MCHC: 33.5%
  MCV: 62.5 fL
  Mono: 2.4%
  Neu: 6.2%
  PT: 11.7 s
  Plat: 108.7 x10_4/uL
  RBC: 667.2 x10_4/ul
  Ret: 5.5%
  WBC: 180.6 x10_2/uL
  KIDNEY_L: 1.1 g
  KIDNEY_R: 1.1 g
  KIDNEY_TOTAL: 2.2 g
  LIVER: 11.8 g
  A/G: 2.3
  ALP: 983.4 IU/L
  ALT: 35.8 IU/L
  AST: 66.6 IU/L
  BUN: 17.2 mg/dL
  CRE: 0.6 mg/dL
  Ca: 10.9 mg/dL
  Cl: 104.4 meq/L
  DBIL: 0.002 mg/dL
  GLC: 177 mg/dL
  IP: 8.3 mg/dL
  K: 4.6 meq/L
  LDH: 79.2 IU/L
  Na: 141 meq/L
  PL: 149.6 mg/dL
  RALB: 4.1 g/dL
  TBIL: 0.4 mg/dL
  TC: 71 mg/dL
  TG: 107.4 mg/dL
  TP: 5.9 g/dL
  gamma-GTP: 2.6 IU/L
[…], time 28 day
  TERMINAL_BW: 346.9 g
  APTT: 17.5 s
  Bas: 0%
  Eos: 1%
  Fbg: 230.2 mg/dL
  Hb: 14.8 g/dL
  Ht: 44.5%
  Lym: 90%
  MCH: 19 pg
  MCHC: 33.4%
  MCV: 57.1 fL
  Mono: 3.8%
  Neu: 5.2%
  PT: 12.1 s
  Plat: 81 x10_4/uL
  RBC: 780 x10_4/ul
  Ret: 3.2%
  WBC: 163.8 x10_2/uL
  KIDNEY_L: 1.2 g
  KIDNEY_R: 1.2 g
  KIDNEY_TOTAL: 2.4 g
  LIVER: 13.6 g
  A/G: 1.7
  ALP: 765.4 IU/L
  ALT: 30.2 IU/L
  AST: 61.8 IU/L
  BUN: 19.8 mg/dL
  CRE: 0.6 mg/dL
  Ca: 10.8 mg/dL
  Cl: 107.2 meq/L
  DBIL: 0.032 mg/dL
  GLC: 173.8 mg/dL
  IP: 7.5 mg/dL
  K: 4.2 meq/L
  LDH: 88.2 IU/L
  Na: 141.4 meq/L
  PL: 154 mg/dL
  RALB: 3.8 g/dL
  TBIL: 0.3 mg/dL
  TC: 73.8 mg/dL
  TG: 141.8 mg/dL
  TP: 6.2 g/dL
  gamma-GTP: 1.2 IU/L
